Measurements published in ChEMBL document CHEMBL3714723, “Thiazole and oxazole-substituted arylamides as P2X3 and P2X2/3 antagonists” (2010).
Active and inactive are the calls of the source. How the calls were made is not given here.

Biological target: T1, P2X purinoceptor 3 (Rattus norvegicus) (UniProt P49654)
T1 sequence (whole entry): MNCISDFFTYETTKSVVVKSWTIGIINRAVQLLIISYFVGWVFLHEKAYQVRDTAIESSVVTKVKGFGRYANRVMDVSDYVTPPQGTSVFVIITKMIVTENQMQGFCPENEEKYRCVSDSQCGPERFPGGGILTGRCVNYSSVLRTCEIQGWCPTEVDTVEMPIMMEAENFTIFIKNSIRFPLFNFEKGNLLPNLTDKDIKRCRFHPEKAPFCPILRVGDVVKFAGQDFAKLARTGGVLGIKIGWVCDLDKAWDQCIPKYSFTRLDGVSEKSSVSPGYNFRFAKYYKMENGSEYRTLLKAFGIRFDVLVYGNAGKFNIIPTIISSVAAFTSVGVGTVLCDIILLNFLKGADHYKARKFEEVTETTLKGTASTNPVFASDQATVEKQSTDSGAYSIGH
Experiment: Antagonist activity against rat P2X3 receptor expressed in CHOK1 cells assessed as inhibition of alpha,beta-meATP-induced calcium response incubated for 20 mins by Fluo-3AM dye based FLIPR assay
Assay type: functional, cell-based
Conditions: CHO-K1

Row | antagonist activity call (active/inactive) | Structure (SMILES)
1 | Active | COCC(C)NC(=O)c1cc(-c2ccc(C)cc2)cc(-c2ncc(C(=O)NC(C)C)s2)c1 (stereo not given)
2 | Active | Cc1ccc(-c2cc(C(=O)NCc3ccc(C)nn3)cc(-c3scnc3C(C)C)c2)nc1
3 | Active | CCC(C)NC(=O)c1cc(-c2ccc(C)cc2)cc(-c2nccs2)c1 (stereo not given)
4 | Active | Cc1ccc(-c2cc(C(=O)N[C@H](C)CN3CCN(S(C)(=O)=O)CC3)cc(-c3nccs3)c2)c(F)c1
5 | Active | Cc1ccc(-c2cc(C(=O)N[C@H](C)CO)cc(-c3nccs3)c2)c(F)c1
6 | Active | COCC(C)NC(=O)c1cc(-c2ccc(C)cc2)cc(-c2ccns2)c1 (stereo not given)
7 | Active | Cc1ccc(-c2cc(C(=O)NC(C)(C)c3ccccc3)cc(-c3nccs3)c2)cc1
8 | Active | Cc1ccc(-c2cc(C(=O)NC(C)c3ccco3)cc(-c3nccs3)c2)cc1 (stereo not given)
9 | Active | COCC(C)NC(=O)c1cc(-c2ccc(C)cc2)cc(-c2scnc2C)c1 (stereo not given)
10 | Active | Cc1ccc(-c2cc(C(=O)N[C@@H](C)CO)cc(-c3scnc3C(C)C)c2)nc1
11 | Active | C[C@H](CN1CCN(S(C)(=O)=O)CC1)NC(=O)c1cc(-c2nccs2)cc(-c2ccc(F)cc2Cl)c1
12 | Active | Cc1ccc(-c2cc(C(=O)N[C@H](C)CN3CCN(S(C)(=O)=O)CC3)cc(-c3cncs3)c2)cc1
13 | Active | C[C@H](CN1CCOCC1)NC(=O)c1cc(-c2cncs2)cc(-c2ccc(F)cc2Cl)c1
14 | Active | Cc1ccc(-c2cc(C(=O)N[C@H](C)CO)cc(-c3nccs3)c2)cc1
15 | Active | Cc1ccc(-c2cc(C(=O)NCCOCCO)cc(-c3nccs3)c2)cc1
16 | Active | Cc1ccc(-c2cc(C(=O)N[C@H](C)CN3CCS(=O)(=O)CC3)cc(-c3scnc3C)c2)cc1
17 | Active | CCc1ncsc1-c1cc(C(=O)NCc2cnc(C)cn2)cc(-c2ccc(C)cc2)c1
18 | Active | COCC(C)NC(=O)c1cc(-c2ccc(C)cc2)cc(-c2nc3ccccc3s2)c1 (stereo not given)
19 | Active | Cc1ccc(-c2cc(C(=O)NC(C)c3cnccn3)cc(-c3nccs3)c2)cc1 (stereo not given)
20 | Active | Cc1ccc(-c2cc(C(=O)NC(C)c3cnccn3)cc(-c3nccs3)c2)c(F)c1 (stereo not given)
21 | Active | COCC(C)NC(=O)c1cc(-c2cncs2)cc(-c2ccc(F)cc2Cl)c1 (stereo not given)
22 | Active | Cc1ccc(-c2cc(C(=O)NC(C)CO)cc(-c3scnc3C)c2)cc1 (stereo not given)
23 | Active | COC[C@@H](C)NC(=O)c1cc(-c2ccc(C)cc2)cc(-c2scnc2C)c1
24 | Active | Cc1ccc(-c2cc(C(=O)N[C@H](C)CN3CCOCC3)cc(-c3cncs3)c2)cc1
25 | Active | CC(=O)N1CCN(C[C@@H](C)NC(=O)c2cc(-c3ccc(C)cc3)cc(-c3nccs3)c2)CC1
26 | Active | CC(=O)N1CCN(C[C@@H](C)NC(=O)c2cc(-c3ccc(C)cc3)cc(-c3cncs3)c2)CC1
27 | Active | CCCc1ncoc1-c1cc(C(=O)NCc2cnc(C)cn2)cc(-c2ccc(C)cn2)c1
28 | Active | CNC(=O)c1cnc(-c2cc(C(=O)NC(C)COC)cc(-c3ccc(C)cc3)c2)s1 (stereo not given)

Row | antagonist activity call (active/inactive) | Structure (SMILES)
29 | Active | COCC(C)NC(=O)c1cc(-c2ccc(C)cc2)cc(-c2cscn2)c1 (stereo not given)
30 | Active | CCC(C)(C)NC(=O)c1cc(-c2ccc(C)cc2)cc(-c2nccs2)c1
31 | Active | COCC(C)NC(=O)c1cc(-c2ccc(C)cc2)cc(-c2ncco2)c1 (stereo not given)
32 | Active | Cc1ccc(-c2cc(C(=O)NC(C)CN(C)C)cc(-c3nccs3)c2)cc1 (stereo not given)
33 | Active | Cc1ccc(-c2cc(C(=O)N[C@H](C)CN3CCOCC3)cc(-c3scnc3C)c2)cc1
34 | Active | Cc1ccc(-c2cc(C(=O)N[C@H](C)CN3CCN(S(C)(=O)=O)CC3)cc(-c3cncs3)c2)c(F)c1
35 | Active | COC[C@H](C)NC(=O)c1cc(-c2ccc(C)cc2)cc(-c2scnc2C)c1
36 | Active | Cc1ccc(-c2cc(C(=O)NC(C)c3cnccn3)cc(-c3scnc3C)c2)cc1 (stereo not given)
37 | Active | CCOC(=O)c1cnc(-c2cc(C(=O)NC(C)COC)cc(-c3ccc(C)cc3)c2)s1 (stereo not given)
38 | Active | COCC(C)NC(=O)c1cc(-c2ccc(C)cc2)cc(-c2oncc2C)c1 (stereo not given)
39 | Active | Cc1ccc(-c2cc(C(=O)N[C@H](C)CN3CCOCC3)cc(-c3nccs3)c2)c(F)c1
40 | Active | Cc1ccc(-c2cc(C(=O)N[C@H](C)CN3CCN(S(C)(=O)=O)CC3)cc(-c3nccs3)c2)cc1
41 | Active | C[C@H](CN1CCOCC1)NC(=O)c1cc(-c2nccs2)cc(-c2ccc(F)cc2Cl)c1
42 | Active | Cc1ccc(-c2cc(C(=O)NC(C)c3cnccn3)cc(-c3cncs3)c2)cc1 (stereo not given)
43 | Active | C[C@H](CN1CCN(S(C)(=O)=O)CC1)NC(=O)c1cc(-c2cncs2)cc(-c2ccc(F)cc2Cl)c1
44 | Active | COCC(C)NC(=O)c1cc(-c2ccc(C)cc2)cc(-c2ccno2)c1 (stereo not given)
45 | Active | Cc1ccc(-c2cc(C(=O)N[C@H](C)CN3CCOCC3)cc(-c3nccs3)c2)cc1
46 | Active | CC(=O)N1CCN(C[C@@H](C)NC(=O)c2cc(-c3nccs3)cc(-c3ccc(C)cc3F)c2)CC1
47 | Active | CC(=O)N1CCN(C[C@@H](C)NC(=O)c2cc(-c3ccc(C)cc3)cc(-c3scnc3C)c2)CC1
48 | Active | COc1ccc([C@@H](C)NC(=O)c2cc(-c3ccc(C)cc3)cc(-c3nccs3)c2)cc1
49 | Active | COCC(C)NC(=O)c1cc(-c2ccc(C)cc2)cc(-c2cocn2)c1 (stereo not given)
50 | Active | COCC(C)NC(=O)c1cc(-c2ccc(C)cc2)cc(-c2nccs2)c1 (stereo not given)
51 | Active | Cc1ccc(-c2cc(C(=O)NCc3ccc(C)nn3)cc(-c3ncsc3C(C)C)c2)nc1
52 | Active | COCC(C)NC(=O)c1cc(-c2ccc(C)cc2)cc(-c2ncc(C(=O)N(C)C)s2)c1 (stereo not given)
53 | Active | COCC(C)NC(=O)c1cc(-c2cncs2)cc(-c2ccc(F)cc2F)c1 (stereo not given)
54 | Active | COCC(C)NC(=O)c1cc(-c2ccc(C)cc2)cc(-c2cnco2)c1 (stereo not given)
55 | Active | COCC(C)NC(=O)c1cc(-c2ccc(C)cc2)cc(-c2cncs2)c1 (stereo not given)
